{"source": "paper PMC4052326", "about": "“Alterporriol-Type Dimers from the Mangrove Endophytic Fungus, Alternaria sp. (SK11), and Their MptpB Inhibitions” (Marine Drugs, 2014)", "target": "T1, Mycobacterium tuberculosis protein tyrosine phosphatase B (MptpB) (Mycobacterium tuberculosis, UniProt I6WXK4)", "T1 construct": "The full-length PTPB gene was amplified from genomic DNA of the Mtb H37Rv strain; His6 (N); made in house", "T1 sequence (I6WXK4 whole entry, looked up)": "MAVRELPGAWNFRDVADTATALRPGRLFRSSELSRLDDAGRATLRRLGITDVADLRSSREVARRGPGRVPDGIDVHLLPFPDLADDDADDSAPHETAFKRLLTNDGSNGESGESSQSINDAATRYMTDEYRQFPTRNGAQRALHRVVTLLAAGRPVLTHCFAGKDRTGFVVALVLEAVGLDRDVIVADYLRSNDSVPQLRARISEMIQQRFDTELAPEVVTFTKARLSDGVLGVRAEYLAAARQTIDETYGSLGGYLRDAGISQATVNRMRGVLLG", "experiment": "biochemical", "format": "biochemical", "conditions": "for IC50: MptpB, substrate DiFMUP, average of two independent experiments, sodium orthovanadate as positive control"}
{"molecule": "COc1cc(O)c2c(c1O)C(c1cc(O)c3c(c1O)C(=O)C1=C(CC(O)C(C)(O)C1)C3=O)C1CC(C)(O)C(O)C(O)C1C2=O", "note": "(stereo not shown) [Compound 1, alterporriol S]", "values": [{"measurement": "IC50", "result": 64.7, "unit": "µM"}]}
{"molecule": "COc1cc(O)c2c(c1)C(=O)c1cc(C)c(O)c(-c3c(OC)cc4c(c3O)C(=O)C3=C(C4=O)[C@@H](O)[C@](C)(O)[C@H](O)[C@H]3O)c1C2=O", "note": "[Compound 2, (+)-aS-alterporriol C]", "values": [{"measurement": "IC50", "result": 8.7, "unit": "µM"}, {"measurement": "inhibitory activity against MptpB", "setting": "result in words", "result": "strong inhibitory activity"}]}
{"molecule": "[Na+].[Na+].[Na+].[O]=[V]([O-])([O-])[O-]", "note": "[Control, sodium orthovanadate, reference compound]", "values": [{"measurement": "IC50", "result": 0.05, "unit": "µM"}]}
